# Assay results taken from ChEMBL document CHEMBL2396621, “Design, synthesis and biological evaluation of 2-mercapto-3-phenethylquinazoline bearing anilide fragments as potential antitumor agents: molecular docking study” (2013).
# Assays:
# Format in all cases: functional
# [1] = tested on: HOP-62; assay: Cytotoxicity against human HOP62 cells assessed as growth inhibition at 10 uM after 48 hrs by coulter counter analysis; settings: HOP-62, 48 h, read-out: GI
# [2] = Cytotoxicity against human EKVX cells assessed as growth inhibition at 10 uM after 48 hrs by coulter counter analysis; settings: read-out: GI
# [3] = tested on: A549; assay: Cytotoxicity against human A549 cells assessed as growth inhibition at 10 uM after 48 hrs by coulter counter analysis; settings: A549, 48 h, read-out: GI
# [4] = tested on: MDA-MB-468; assay: Cytotoxicity against human MDA-MB-468 cells assessed as growth inhibition at 10 uM after 48 hrs by coulter counter analysis; settings: MDA-MB-468, 48 h, read-out: GI
# [5] = tested on: T47D; assay: Cytotoxicity against human T47D cells assessed as growth inhibition at 10 uM after 48 hrs by coulter counter analysis; settings: read-out: GI
# [6] = tested on: MCF7; assay: Cytotoxicity against human MCF7 cells assessed as growth inhibition at 10 uM after 48 hrs by coulter counter analysis; settings: MCF7, 48 h, read-out: GI
# [7] = tested on: PC-3; assay: Cytotoxicity against human PC3 cells assessed as growth inhibition at 10 uM after 48 hrs by coulter counter analysis; settings: PC-3, 48 h, read-out: GI
# [8] = tested on: UO-31; assay: Cytotoxicity against human UO31 cells assessed as growth inhibition at 10 uM after 48 hrs by coulter counter analysis; settings: UO-31, 48 h, read-out: GI
# [9] = tested on: TK-10; assay: Cytotoxicity against human TK10 cells assessed as growth inhibition at 10 uM after 48 hrs by coulter counter analysis; settings: TK-10, 48 h, read-out: GI
# [10] = tested on: RXF 393; assay: Cytotoxicity against human RXF393 cells assessed as growth inhibition at 10 uM after 48 hrs by coulter counter analysis; settings: RXF 393, 48 h, read-out: GI
# [11] = tested on: A498; assay: Cytotoxicity against human A498 cells assessed as growth inhibition at 10 uM after 48 hrs by coulter counter analysis; settings: A498, 48 h, read-out: GI
# [12] = tested on: SK-OV-3; assay: Cytotoxicity against human SKOV3 cells assessed as growth inhibition at 10 uM after 48 hrs by coulter counter analysis; settings: SK-OV-3, 48 h, read-out: GI
# [13] = tested on: 786-0; assay: Cytotoxicity against human 786-0 cells assessed as growth inhibition at 10 uM after 48 hrs by coulter counter analysis; settings: 786-0, 48 h, read-out: GI
# [14] = Cytotoxicity against human NCI-ADR-RES cells assessed as growth inhibition at 10 uM after 48 hrs by coulter counter analysis; settings: read-out: GI
# [15] = tested on: OVCAR-8; assay: Cytotoxicity against human OVCAR8 cells assessed as growth inhibition at 10 uM after 48 hrs by coulter counter analysis; settings: OVCAR-8, 48 h, read-out: GI
# [16] = tested on: OVCAR-5; assay: Cytotoxicity against human OVCAR5 cells assessed as growth inhibition at 10 uM after 48 hrs by coulter counter analysis; settings: OVCAR-5, 48 h, read-out: GI
# [17] = tested on: OVCAR-4; assay: Cytotoxicity against human OVCAR4 cells assessed as growth inhibition at 10 uM after 48 hrs by coulter counter analysis; settings: OVCAR-4, 48 h, read-out: GI
# [18] = tested on: UACC-257; assay: Cytotoxicity against human UACC257 cells assessed as growth inhibition at 10 uM after 48 hrs by coulter counter analysis; settings: UACC-257, 48 h, read-out: GI
# [19] = tested on: SK-MEL-5; assay: Cytotoxicity against human SK-MEL-5 cells assessed as growth inhibition at 10 uM after 48 hrs by coulter counter analysis; settings: SK-MEL-5, 48 h, read-out: GI
# [20] = tested on: MDA-MB-435; assay: Cytotoxicity against human MDA-MB-435 cells assessed as growth inhibition at 10 uM after 48 hrs by coulter counter analysis; settings: MDA-MB-435, 48 h, read-out: GI
# [21] = tested on: M14; assay: Cytotoxicity against human M14 cells assessed as growth inhibition at 10 uM after 48 hrs by coulter counter analysis; settings: M14, 48 h, read-out: GI
# [22] = tested on: Malme-3M; assay: Cytotoxicity against human MALME-3M cells assessed as growth inhibition at 10 uM after 48 hrs by coulter counter analysis; settings: read-out: GI
# [23] = tested on: LOX IMVI; assay: Cytotoxicity against human LOXIMVI cells assessed as growth inhibition at 10 uM after 48 hrs by coulter counter analysis; settings: read-out: GI
# [24] = tested on: U-251; assay: Cytotoxicity against human U251 cells assessed as growth inhibition at 10 uM after 48 hrs by coulter counter analysis; settings: U-251, 48 h, read-out: GI
# [25] = tested on: SNB-75; assay: Cytotoxicity against human SNB75 cells assessed as growth inhibition at 10 uM after 48 hrs by coulter counter analysis; settings: SNB-75, 48 h, read-out: GI
# [26] = tested on: SNB-19; assay: Cytotoxicity against human SNB19 cells assessed as growth inhibition at 10 uM after 48 hrs by coulter counter analysis; settings: SNB-19, 48 h, read-out: GI
# [27] = tested on: SF-539; assay: Cytotoxicity against human SF539 cells assessed as growth inhibition at 10 uM after 48 hrs by coulter counter analysis; settings: SF-539, 48 h, read-out: GI
# [28] = tested on: SF-295; assay: Cytotoxicity against human SF295 cells assessed as growth inhibition at 10 uM after 48 hrs by coulter counter analysis; settings: SF-295, 48 h, read-out: GI
# [29] = tested on: SF-268; assay: Cytotoxicity against human SF268 cells assessed as growth inhibition at 10 uM after 48 hrs by coulter counter analysis; settings: SF-268, 48 h, read-out: GI
# [30] = tested on: SW-620; assay: Cytotoxicity against human SW620 cells assessed as growth inhibition at 10 uM after 48 hrs by coulter counter analysis; settings: SW-620, 48 h, read-out: GI
# [31] = tested on: KM12; assay: Cytotoxicity against human KM12 cells assessed as growth inhibition at 10 uM after 48 hrs by coulter counter analysis; settings: KM12, 48 h, read-out: GI
# [32] = tested on: HT-29; assay: Cytotoxicity against human HT-29 cells assessed as growth inhibition at 10 uM after 48 hrs by coulter counter analysis; settings: HT-29, 48 h, read-out: GI
# [33] = tested on: HCT-15; assay: Cytotoxicity against human HCT15 cells assessed as growth inhibition at 10 uM after 48 hrs by coulter counter analysis; settings: HCT-15, 48 h, read-out: GI
# [34] = tested on: HCT-116; assay: Cytotoxicity against human HCT116 cells assessed as growth inhibition at 10 uM after 48 hrs by coulter counter analysis; settings: HCT-116, 48 h, read-out: GI
# [35] = tested on: HCC 2998; assay: Cytotoxicity against human HCC2998 cells assessed as growth inhibition at 10 uM after 48 hrs by coulter counter analysis; settings: HCC 2998, 48 h, read-out: GI
# [36] = tested on: COLO 205; assay: Cytotoxicity against human COLO205 cells assessed as growth inhibition at 10 uM after 48 hrs by coulter counter analysis; settings: COLO 205, 48 h, read-out: GI
# [37] = tested on: NCI-H460; assay: Cytotoxicity against human NCI-H460 cells assessed as growth inhibition at 10 uM after 48 hrs by coulter counter analysis; settings: NCI-H460, 48 h, read-out: GI
SMILES,inhibition of growth at 10 µM [1] [%],inhibition of growth at 10 µM [2] [%],inhibition of growth at 10 µM [3] [%],inhibition of growth at 10 µM [4] [%],inhibition of growth at 10 µM [5] [%],inhibition of growth at 10 µM [6] [%],inhibition of growth at 10 µM [7] [%],inhibition of growth at 10 µM [8] [%],inhibition of growth at 10 µM [9] [%],inhibition of growth at 10 µM [10] [%],inhibition of growth at 10 µM [11] [%],inhibition of growth at 10 µM [12] [%],inhibition of growth at 10 µM [13] [%],inhibition of growth at 10 µM [14] [%],inhibition of growth at 10 µM [15] [%],inhibition of growth at 10 µM [16] [%],inhibition of growth at 10 µM [17] [%],inhibition of growth at 10 µM [18] [%],inhibition of growth at 10 µM [19] [%],inhibition of growth at 10 µM [20] [%],further results
O=C(CSc1nc2ccccc2c(=O)n1CCc1ccccc1)Nc1ccccc1,< 10,16,16,18,13,19,10,< 10,< 10,< 10,11,14,< 10,< 10,< 10,< 10,< 10,< 10,13,< 10,inhibition of growth at 10 µM [21]: 10%; inhibition of growth at 10 µM [22]: < 10%; inhibition of growth at 10 µM [23]: 11%; inhibition of growth at 10 µM [24]: < 10%; inhibition of growth at 10 µM [25]: 12%; inhibition of growth at 10 µM [26]: < 10%; inhibition of growth at 10 µM [27]: < 10%; inhibition of growth at 10 µM [28]: < 10%; inhibition of growth at 10 µM [29]: < 10%; inhibition of growth at 10 µM [30]: < 10%; inhibition of growth at 10 µM [31]: < 10%; inhibition of growth at 10 µM [32]: < 10%; inhibition of growth at 10 µM [33]: < 10%; inhibition of growth at 10 µM [34]: 15%; inhibition of growth at 10 µM [35]: < 10%; inhibition of growth at 10 µM [36]: < 10%; inhibition of growth at 10 µM [37]: < 10%
COc1ccc(NC(=O)CSc2nc3ccccc3c(=O)n2CCc2ccccc2)cc1,52,25,25,13,< 10,11,< 10,< 10,10,21,< 10,25,< 10,15,40,< 10,< 10,14,10,10,inhibition of growth at 10 µM [21]: 25%; inhibition of growth at 10 µM [22]: 40%; inhibition of growth at 10 µM [23]: < 10%; inhibition of growth at 10 µM [24]: 29%; inhibition of growth at 10 µM [25]: 72%; inhibition of growth at 10 µM [26]: 41%; inhibition of growth at 10 µM [27]: 10%; inhibition of growth at 10 µM [28]: 21%; inhibition of growth at 10 µM [29]: 47%; inhibition of growth at 10 µM [30]: 11%; inhibition of growth at 10 µM [31]: 16%; inhibition of growth at 10 µM [32]: < 10%; inhibition of growth at 10 µM [33]: < 10%; inhibition of growth at 10 µM [34]: 13%; inhibition of growth at 10 µM [35]: < 10%; inhibition of growth at 10 µM [36]: < 10%; inhibition of growth at 10 µM [37]: 25%
O=C(CSc1nc2ccccc2c(=O)n1CCc1ccccc1)Nc1cc(Cl)ccc1C(=O)O,< 10,20,< 10,< 10,< 10,< 10,< 10,18,< 10,< 10,10,< 10,< 10,< 10,< 10,< 10,< 10,< 10,< 10,< 10,inhibition of growth at 10 µM [21]: < 10%; inhibition of growth at 10 µM [22]: < 10%; inhibition of growth at 10 µM [23]: < 10%; inhibition of growth at 10 µM [24]: < 10%; inhibition of growth at 10 µM [25]: 20%; inhibition of growth at 10 µM [26]: < 10%; inhibition of growth at 10 µM [27]: < 10%; inhibition of growth at 10 µM [28]: < 10%; inhibition of growth at 10 µM [29]: < 10%; inhibition of growth at 10 µM [30]: < 10%; inhibition of growth at 10 µM [31]: < 10%; inhibition of growth at 10 µM [32]: < 10%; inhibition of growth at 10 µM [33]: < 10%; inhibition of growth at 10 µM [34]: < 10%; inhibition of growth at 10 µM [35]: < 10%; inhibition of growth at 10 µM [36]: < 10%; inhibition of growth at 10 µM [37]: < 10%
COc1cc(NC(=O)CCSc2nc3ccccc3c(=O)n2CCc2ccccc2)cc(OC)c1OC,45,34,29,27,47,33,25,22,17,12,37,44,29,13,28,< 10,51,72,31,38,inhibition of growth at 10 µM [21]: 40%; inhibition of growth at 10 µM [22]: 77%; inhibition of growth at 10 µM [23]: 54%; inhibition of growth at 10 µM [24]: 25%; inhibition of growth at 10 µM [25]: 38%; inhibition of growth at 10 µM [26]: 12%; inhibition of growth at 10 µM [27]: 70%; inhibition of growth at 10 µM [28]: 10%; inhibition of growth at 10 µM [29]: 26%; inhibition of growth at 10 µM [30]: 14%; inhibition of growth at 10 µM [31]: 39%; inhibition of growth at 10 µM [32]: 18%; inhibition of growth at 10 µM [33]: 18%; inhibition of growth at 10 µM [34]: 40%; inhibition of growth at 10 µM [35]: < 10%; inhibition of growth at 10 µM [36]: 20%; inhibition of growth at 10 µM [37]: 17%
